The results in this text go back to US9339508B2, “Use of 3-methoxy-pregnenolone for the preparation of a drug for treating a traumatic brain injury” (MAPREG, priority 2003, dated 2016).

One data set has as its system Sprague Dawley rats. Kind of data set: Novel object recognition test, naive animals, 4 h ITI. The class given is in vivo, rat. As to conditions: 10 mg/kg subcutaneously immediately after T1. From the text:
(§1) Cognitive dysfunction, including impaired recognition memory, are common features in depressed patients (Egeland et al., Scand. J. Psychol. 2005). The present experiment explored the ability of 3-methoxy-PREG (43B) administration to increase recognition memory retention in naive animals and to recover recognition memory deficits in animals submitted to the social isolation protocol. Rearing rats in isolation from the time of weaning and throughout adulthood can induce a series of hippocampal structural and molecular deficits paralled by behavioural alterations resembling a depressive-like state (Weiss and Feldon, Psychopharmacology 2001; Bianchi et al., EJN 2006). Recognition memory was assessed using the NOR test which is a two-trial test of recognition memory based on the spontaneous preference of rats for novelty (Ennaceur and Delacour, Behav. Brain. Res. 1988; Bianchi et al. EJN. 2006). Briefly, rats are placed in the open field arena for a 3 min period of habituation and then re-placed in their “home” cage for 1 min. The animals are then re-placed in the arena for the familiarization trial (T1) and allowed to explore two identical objects for 5 min. […] The ability of the animals to discriminate between the novel and the familiar object is then expressed as D2-INDEX: [novel object (sec)−familiar object (sec)]/[novel object (sec)+familiar object (sec)] […]

In another data set the test system is social isolated rats. In words: Novel object recognition test, social isolated animals, 1 h ITI. The format is in vivo, rat. To be noted: 10 mg/kg subcutaneously 1 h before task.
Source text: as §1

In data set [1] the test system is 80 different CNS neurotransmitters receptors. In words: In vitro affinity screen on CNS receptors. To be noted: 10 μM; significant: inhibition higher than 50%. The class given is binding. From the text: MAP4343 has been screened for in vitro affinity to 80 different CNS neurotransmitters receptors using various validated binding assays.
The next data set has as its system CCI injured hippocampi. In words: Histological analysis of the hippocampus size after CCI. The class given is in vivo, rat. To be noted: day 35, 10 mg/kg and 20 mg/kg, first injection 2 h after TBI. How it is done:
CCI was performed with an electromagnetic impact device as described (MyNeurolab, St. Louis, Mo.; Brody et al, 2007). Anesthesized rats were subjected to a single right lateral CCI, with the following parameters impact centered 4.0 mm anterior to lambda and 4.5 mm […] of midline, within the craniotomy of the animal. The impact was set at a velocity of 4 m/s with a sustained depression of 200 ms, using a 5.0 mm tip.
Frozen sections were stained with cresyl violet. For each section analyzed, the size of the hippocampus was determined by first outlining all remaining tissue of each section taken at 500 μm intervals through the lesion (right hemisphere) or contra lateral hemisphere, thus providing a total tissue area (mm2) of the two hemispheres for each section. Then, the areas of sections were summed per hemisphere.

The nature of data set [2]: Neurosteroids and 43B levels in rat plasma and hippocampus. To be noted: 3 h after 10 mg/kg subcutaneously.

For `CO[C@H]1CC[C@@]2(C)C(=CC[C@H]3[C@@H]4CC[C@H](C(C)=O)[C@@]4(C)CC[C@@H]32)C1` [3-methoxy-PREG, 3β-methoxy-pregna-5-ene-20-one], the “discrimination between novel and familiar object” value in the data set on Sprague Dawley rats is “discriminated between the novel and the familiar object showing increased memory retention”. Also, the “discrimination between familiar and novel object” value in the data set with social isolated rats was “efficiently discriminated between the familiar and the novel object”. Moreover, the “affinity for tested CNS receptors” value in data set [1] is “no significant affinity for any tested receptor”. Moreover, in the data set with CCI injured hippocampi, the “size of the injured hippocampus” value is recorded as “significantly increases the size of the injured hippocampus”. The “conversion to PREG or PROG” value in data set [2] is on record as “not converted back to PREG or metabolized to PROG”.
